Measurements taken from ChEMBL document CHEMBL2413072, “Synthesis and in vitro anticancer studies of novel C-2 arylidene congeners of lantadenes” (2013).

Key:
Format in all cases: functional
BT-549 [1] = experiment: Growth inhibition of human BT549 cells assessed as cell growth at 10^-7 M by sulforhodamine B assay; conditions: read-out: Activity
BT-549 [2] = experiment: Growth inhibition of human BT549 cells by sulforhodamine B assay
SW-620 = experiment: Growth inhibition of human SW620 cells assessed as cell growth at 10 uM by sulforhodamine B assay; conditions: read-out: Activity
OVCAR-4 = experiment: Growth inhibition of human OVCAR4 cells assessed as cell growth at 10^-7 M by sulforhodamine B assay; conditions: read-out: Activity
SK-MEL-2 [3] = experiment: Growth inhibition of human SK-MEL-2 cells assessed as growth inhibition at 10 uM by sulforhodamine B assay; conditions: read-out: GI
OVCAR-5 = experiment: Growth inhibition of human OVCAR5 cells assessed as growth inhibition at 10 uM by sulforhodamine B assay; conditions: read-out: GI
T47D [4] = experiment: Growth inhibition of human T47D cells assessed as growth inhibition at 10 uM by sulforhodamine B assay; conditions: read-out: GI
T47D [5] = experiment: Growth inhibition of human T47D cells assessed as cell growth at 10^-4 M by sulforhodamine B assay; conditions: read-out: Activity
HOP-62 [6] = experiment: Growth inhibition of human HOP62 cells assessed as cell growth at 10^-4 M by sulforhodamine B assay; conditions: read-out: Activity
SNB-19 [7] = experiment: Growth inhibition of human SNB19 cells assessed as cell growth at 10^-6 M by sulforhodamine B assay; conditions: read-out: Activity
KM12 [8] = experiment: Growth inhibition of human KM12 cells assessed as cell growth at 10^-4 M by sulforhodamine B assay; conditions: read-out: Activity
786-0 = experiment: Growth inhibition of human 786-0 cells assessed as cell growth at 10 uM by sulforhodamine B assay; conditions: read-out: Activity
UO-31 = experiment: Growth inhibition of human UO31 cells assessed as cell growth at 10 uM by sulforhodamine B assay; conditions: read-out: Activity
LOX IMVI = experiment: Growth inhibition of human LOXIMVI cells assessed as cell growth at 10^-4 M by sulforhodamine B assay; conditions: read-out: Activity
UACC-257 = experiment: Growth inhibition of human UACC257 cells assessed as cell growth at 10^-4 M by sulforhodamine B assay; conditions: read-out: Activity
TK-10 = experiment: Growth inhibition of human TK10 cells assessed as cell growth at 10 uM by sulforhodamine B assay; conditions: read-out: Activity
COLO 205 [9] = experiment: Growth inhibition of human COLO205 cells assessed as cell growth at 10^-4 M by sulforhodamine B assay; conditions: read-out: Activity
SK-MEL-2 [10] = experiment: Growth inhibition of human SK-MEL-2 cells by sulforhodamine B assay
OVCAR-8 [11] = experiment: Growth inhibition of human OVCAR8 cells assessed as growth inhibition at 10 uM by sulforhodamine B assay; conditions: read-out: GI
T47D [12] = experiment: Growth inhibition of human T47D cells assessed as cell growth at 10^-6 M by sulforhodamine B assay; conditions: read-out: Activity
SNB-19 [13] = experiment: Growth inhibition of human SNB19 cells assessed as growth inhibition at 10 uM by sulforhodamine B assay; conditions: read-out: GI
SR = experiment: Growth inhibition of human SR cells assessed as cell growth at 10^-7 M by sulforhodamine B assay; conditions: read-out: Activity
HOP-62 [14] = experiment: Growth inhibition of human HOP62 cells assessed as cell growth at 10^-8 M by sulforhodamine B assay; conditions: read-out: Activity
HCT-15 [15] = experiment: Growth inhibition of human HCT15 cells assessed as cell growth at 10^-7 M by sulforhodamine B assay; conditions: read-out: Activity
RPMI-8226 = experiment: Growth inhibition of human RPMI8226 cells assessed as cell growth at 10^-7 M by sulforhodamine B assay; conditions: read-out: Activity
[16] = Growth inhibition of human EKVX cells assessed as cell growth at 10 uM by sulforhodamine B assay; conditions: read-out: Activity
SNB-19 [17] = experiment: Growth inhibition of human SNB19 cells assessed as cell growth at 10 uM by sulforhodamine B assay; conditions: read-out: Activity
HT-29 = experiment: Growth inhibition of human HT-29 cells assessed as cell growth at 10 uM by sulforhodamine B assay; conditions: read-out: Activity
[18] = Growth inhibition of human NCI-ADR-RES cells assessed as growth inhibition at 10 uM by sulforhodamine B assay; conditions: read-out: GI
[19] = Growth inhibition of human Hs 578T cells assessed as growth inhibition at 10 uM by sulforhodamine B assay; conditions: read-out: GI
A498 = experiment: Growth inhibition of human A498 cells assessed as cell growth at 10 uM by sulforhodamine B assay; conditions: read-out: Activity
NCI-H322M = experiment: Growth inhibition of human NCI-H322M cells assessed as cell growth at 10^-7 M by sulforhodamine B assay; conditions: read-out: Activity
HCT-15 [20] = experiment: Growth inhibition of human HCT15 cells assessed as growth inhibition at 10 uM by sulforhodamine B assay; conditions: read-out: GI
PC-3 = experiment: Growth inhibition of human PC3 cells assessed as cell growth at 10^-7 M by sulforhodamine B assay; conditions: read-out: Activity
DU-145 = experiment: Growth inhibition of human DU145 cells assessed as cell growth at 10 uM by sulforhodamine B assay; conditions: read-out: Activity
KM12 [21] = experiment: Growth inhibition of human KM12 cells assessed as growth inhibition at 10 uM by sulforhodamine B assay; conditions: read-out: GI
HCT-15 [22] = experiment: Growth inhibition of human HCT15 cells by sulforhodamine B assay
NCI-H226 = experiment: Growth inhibition of human NCI-H226 cells assessed as cell growth at 10^-7 M by sulforhodamine B assay; conditions: read-out: Activity
K562 = experiment: Growth inhibition of human K562 cells assessed as cell growth at 10 uM by sulforhodamine B assay; conditions: read-out: Activity
HCT-15 [23] = experiment: Growth inhibition of human HCT15 cells assessed as cell growth at 10^-6 M by sulforhodamine B assay; conditions: read-out: Activity
OVCAR-8 [24] = experiment: Growth inhibition of human OVCAR8 cells assessed as cell growth at 10^-8 M by sulforhodamine B assay; conditions: read-out: Activity
SK-OV-3 = experiment: Growth inhibition of human SKOV3 cells assessed as cell growth at 10 uM by sulforhodamine B assay; conditions: read-out: Activity
COLO 205 [25] = experiment: Growth inhibition of human COLO205 cells assessed as cell growth at 10 uM by sulforhodamine B assay; conditions: read-out: Activity
ACHN = experiment: Growth inhibition of human ACHN cells assessed as growth inhibition at 10 uM by sulforhodamine B assay; conditions: read-out: GI
SF-295 = experiment: Growth inhibition of human SF295 cells assessed as cell growth at 10^-6 M by sulforhodamine B assay; conditions: read-out: Activity
SK-MEL-5 = experiment: Growth inhibition of human SK-MEL-5 cells assessed as growth inhibition at 10 uM by sulforhodamine B assay; conditions: read-out: GI
[26] = read-out: LC50 (the source's name)
[27] = read-out: pLC50 (the source's name) (converted)

For C/C=C(/C)C(=O)O[C@@H]1CC(C)(C)C[C@H]2C3=CC[C@@H]4[C@@]5(C)CCC(=O)C(C)(C)[C@@H]5CC[C@@]4(C)[C@]3(C)CC[C@@]12C(=O)O [LANTADENE A], the growth at 0.1 µM (BT-549 [1]) was 95%, the GI50 (BT-549 [2]; read-out: GI50) was 4.73 µM and the CC50 (BT-549 [2]; [26]) was > 100 µM. The TGI (BT-549 [2]; read-out: TGI) was > 100 µM, the GI50 (BT-549 [2]; read-out: pGI50 (converted)) was 4.68 µM and the CC50 (BT-549 [2]; [27]) was > 100 µM. For the same compound, the TGI (BT-549 [2]; read-out: pTGI (converted)) was > 100 µM, the growth at 10 µM (SW-620) was 68.7% and the growth at 0.1 µM (OVCAR-4) was 95%. For the same compound, the inhibition of growth at 10 µM (SK-MEL-2 [3]) was 22.9%, the inhibition of growth at 10 µM (OVCAR-5) was < 10% and the inhibition of growth at 10 µM (T47D [4]) was 36.1%. It also gave a growth at 100 µM (T47D [5]) of 23%, a growth at 100 µM (HOP-62 [6]) of 26% and a growth at 1 µM (SNB-19 [7]) of 91%. For the same compound, the growth at 100 µM (KM12 [8]) was 20%, the growth at 10 µM (786-0) was 44.5% and the growth at 10 µM (UO-31) was 42.6%. For the same compound, the growth at 100 µM (LOX IMVI) was 33%, the growth at 100 µM (UACC-257) was 21% and the growth at 10 µM (TK-10) was 83.3%. For the same compound, the growth at 100 µM (COLO 205 [9]) was -51%, the GI50 (SK-MEL-2 [10]; read-out: GI50) was 3.07 µM and the CC50 (SK-MEL-2 [10]; [26]) was > 100 µM. For the same compound, the TGI (SK-MEL-2 [10]; read-out: TGI) was 8.07 µM, the GI50 (SK-MEL-2 [10]; read-out: pGI50 (converted)) was 3.09 µM and the CC50 (SK-MEL-2 [10]; [27]) was > 100 µM. The TGI (SK-MEL-2 [10]; read-out: pTGI (converted)) was 8.13 µM, the inhibition of growth at 10 µM (OVCAR-8 [11]) was 36.3% and the growth at 1 µM (T47D [12]) was 93%. The inhibition of growth at 10 µM (SNB-19 [13]) was 40.6%, the growth at 0.1 µM (SR) was 79% and the growth at 0.01 µM (HOP-62 [14]) was 92%. For the same compound, the growth at 0.1 µM (HCT-15 [15]) was 106%, the growth at 0.1 µM (RPMI-8226) was 91% and the growth at 10 µM [16] was 49.3%. The growth at 10 µM (SNB-19 [17]) was 59.4%, the growth at 10 µM (HT-29) was 67.9% and the inhibition of growth at 10 µM [18] was 26.9%. The inhibition of growth at 10 µM [19] was 21.2%, the growth at 10 µM (A498) was 76.2% and the growth at 0.1 µM (NCI-H322M) was 97%. It also gave an inhibition of growth at 10 µM (HCT-15 [20]) of 69.8%, a growth at 0.1 µM (PC-3) of 83% and a growth at 10 µM (DU-145) of 82.6%. For the same compound, the inhibition of growth at 10 µM (KM12 [21]) was 60%, the GI50 (HCT-15 [22]; read-out: GI50) was 3.17 µM and the LC50 (50% lethal concentration) (HCT-15 [22]; read-out: LC50) was > 100 µM. The TGI (HCT-15 [22]; read-out: TGI) was > 100 µM, the GI50 (HCT-15 [22]; read-out: pGI50 (converted)) was 3.16 µM and the LC50 (50% lethal concentration) (HCT-15 [22]; read-out: pLC50 (converted)) was > 100 µM. The TGI (HCT-15 [22]; read-out: pTGI (converted)) was > 100 µM, the growth at 0.1 µM (NCI-H226) was 81% and the growth at 10 µM (K562) was 44.1%. The growth at 1 µM (HCT-15 [23]) was 87%, the growth at 0.01 µM (OVCAR-8 [24]) was 97% and the growth at 10 µM (SK-OV-3) was 90.1%. It also gave a growth at 10 µM (COLO 205 [25]) of 78%, an inhibition of growth at 10 µM (ACHN) of 46.1% and a growth at 1 µM (SF-295) of 88%. It also gave an inhibition of growth at 10 µM (SK-MEL-5) of 61.3%.
